Reference: ChEMBL document CHEMBL1201862, “PubChem BioAssay data set” (2004)
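In this assay, cells in 96-well plates receive the compound at five concentrations for 48 hours. Endpoints are linearly interpolated between the surrounding concentrations. Here, GI50 denotes the concentration required for 50% inhibition of growth.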 Calls of active or inactive are those of the source. Cut-off read from the data, not from the text of the source: active = GI50 up to about 1.1 µM and inactive = higher.

Columns and labels:
Test in all cases: NCI tumour cell line growth inhibition, 48 h
KM-20L2 = tested on: KM-20L2
OVCAR-5 = tested on: OVCAR-5
CCRF-CEM = tested on: CCRF-CEM
SF-295 = tested on: SF-295
786-0 = tested on: 786-0
OVCAR-8 = tested on: OVCAR-8
MOLT-4 = tested on: MOLT-4
SNB-19 = tested on: SNB-19
DLD-1 = tested on: DLD-1
IGROV-1 = tested on: IGROV-1
RPMI-8226 = tested on: RPMI-8226
NCI-H23 = tested on: NCI-H23
HL-60 = tested on: HL-60
CAKI-1 = tested on: CAKI-1
HCT-15 = tested on: HCT-15
SNB-78 = tested on: SNB-78
HOP-92 = tested on: HOP-92
A498 = tested on: A498
XF498 = tested on: XF498
A549 = tested on: A549
SF-268 = tested on: SF-268
SK-MEL-2 = tested on: SK-MEL-2
NCI-H522 = tested on: NCI-H522
TK-10 = tested on: TK-10
U-251 = tested on: U-251
ACHN = tested on: ACHN
LXFL 529 = tested on: LXFL 529
HCT-116 = tested on: HCT-116
Malme-3M = tested on: Malme-3M
SN12C = tested on: SN12C
SF-539 = tested on: SF-539
DMS-273 = tested on: DMS-273
SW-620 = tested on: SW-620
COLO 205 = tested on: COLO 205
NCI-H226 = tested on: NCI-H226
EKVX = tested on: EKVX
NCI-H460 = tested on: NCI-H460
UACC-257 = tested on: UACC-257
HOP-18 = tested on: HOP-18
UACC-62 = tested on: UACC-62
SK-MEL-5 = tested on: SK-MEL-5
SK-OV-3 = tested on: SK-OV-3
HT-29 = tested on: HT-29
K562 = tested on: K562
UO-31 = tested on: UO-31
LOX IMVI = tested on: LOX IMVI
OVCAR-3 = tested on: OVCAR-3
KM12 = tested on: KM12
M19-MEL = tested on: M19-MEL
M14 = tested on: M14
HOP-62 = tested on: HOP-62
HCC 2998 = tested on: HCC 2998
DMS-114 = tested on: DMS-114
OVCAR-4 = tested on: OVCAR-4
SNB-75 = tested on: SNB-75
RXF 393 = tested on: RXF 393
SK-MEL-28 = tested on: SK-MEL-28
SR = tested on: SR

COc1ccc2c(c1)CC[C@@H]1C2CC[C@]2(C)C(=N\O)/C(=N/O)CC12 (stereo not given in full)
GI50 (KM-20L2): 6.21 µM (inactive)
GI50 (OVCAR-5): 12.4 µM (inactive)
GI50 (CCRF-CEM): 9.68 µM (inactive)
GI50 (SF-295): 10 µM (inactive)
GI50 (786-0): 17.5 µM (inactive)
GI50 (OVCAR-8): 16.5 µM (inactive)
GI50 (MOLT-4): 4.79 µM (inactive)
GI50 (SNB-19): 16.6 µM (inactive)
GI50 (DLD-1): 13.1 µM (inactive)
GI50 (IGROV-1): 3.64 µM (inactive)
GI50 (RPMI-8226): 9.31 µM (inactive)
GI50 (NCI-H23): 10.2 µM (inactive)
GI50 (HL-60): 14.2 µM (inactive)
GI50 (CAKI-1): 10.7 µM (inactive)
GI50 (HCT-15): 12.4 µM
GI50 (SNB-78): 17 µM (inactive)
GI50 (HOP-92): 16.1 µM (inactive)
GI50 (A498): 19.1 µM (inactive)
GI50 (XF498): 14.5 µM (inactive)
GI50 (A549): 10.1 µM (inactive)
GI50 (SF-268): 17.9 µM (inactive)
GI50 (SK-MEL-2): 13.1 µM (inactive)
GI50 (NCI-H522): 2.93 µM (inactive)
GI50 (TK-10): 18.2 µM (inactive)
GI50 (U-251): 15.4 µM (inactive)
GI50 (ACHN): 15.7 µM (inactive)
GI50 (LXFL 529): 12.8 µM (inactive)
GI50 (HCT-116): 16 µM (inactive)
GI50 (Malme-3M): 17.7 µM (inactive)
GI50 (SN12C): 17.7 µM (inactive)
GI50 (SF-539): 18.5 µM (inactive)
GI50 (DMS-273): 12 µM (inactive)
GI50 (SW-620): 17.6 µM (inactive)
GI50 (COLO 205): 14.3 µM (inactive)
GI50 (NCI-H226): 11 µM (inactive)
GI50 (EKVX): 18.7 µM (inactive)
GI50 (NCI-H460): 3.41 µM (inactive)
GI50 (UACC-257): 16.7 µM (inactive)
GI50 (HOP-18): 15.7 µM (inactive)
GI50 (UACC-62): 13.4 µM (inactive)
GI50 (SK-MEL-5): 12.7 µM (inactive)
GI50 (SK-OV-3): 18.4 µM (inactive)
GI50 (HT-29): 2.24 µM (inactive)
GI50 (K562): 8.32 µM (inactive)
GI50 (UO-31): 12.8 µM (inactive)
GI50 (LOX IMVI): 2.43 µM (inactive)
GI50 (OVCAR-3): 12.4 µM (inactive)
GI50 (KM12): 11.2 µM (inactive)
GI50 (M19-MEL): 17.2 µM (inactive)
GI50 (M14): 13.4 µM (inactive)
GI50 (HOP-62): 11.7 µM (inactive)
GI50 (HCC 2998): 22.3 µM (inactive)

N#Cc1cccc(NC(=O)c2ccc(C(=O)O)c(C(=O)c3ccc(C(=O)O)c(C(=O)Nc4cccc(C#N)c4)c3)c2)c1
GI50 (KM-20L2): > 100 µM (inactive)
GI50 (OVCAR-5): > 100 µM (inactive)
GI50 (DMS-114): > 100 µM (inactive)
GI50 (CCRF-CEM): > 100 µM (inactive)
GI50 (SF-295): > 100 µM (inactive)
GI50 (786-0): > 100 µM (inactive)
GI50 (OVCAR-8): > 100 µM (inactive)
GI50 (MOLT-4): > 100 µM (inactive)
GI50 (OVCAR-4): > 100 µM (inactive)
GI50 (SNB-19): > 100 µM (inactive)
GI50 (DLD-1): > 100 µM (inactive)
GI50 (IGROV-1): > 100 µM (inactive)
GI50 (RPMI-8226): > 100 µM (inactive)
GI50 (NCI-H23): > 100 µM (inactive)
GI50 (HL-60): > 100 µM (inactive)
GI50 (CAKI-1): > 100 µM (inactive)
GI50 (HCT-15): > 100 µM
GI50 (SNB-78): > 100 µM (inactive)
GI50 (HOP-92): > 100 µM (inactive)
GI50 (A498): > 100 µM (inactive)
GI50 (XF498): > 100 µM (inactive)
GI50 (A549): > 100 µM (inactive)
GI50 (SF-268): > 100 µM (inactive)
GI50 (SK-MEL-2): > 100 µM (inactive)
GI50 (NCI-H522): > 100 µM (inactive)
GI50 (TK-10): > 100 µM (inactive)
GI50 (U-251): > 100 µM (inactive)
GI50 (LXFL 529): > 100 µM (inactive)
GI50 (HCT-116): > 100 µM (inactive)
GI50 (Malme-3M): > 100 µM (inactive)
GI50 (SN12C): > 100 µM (inactive)
GI50 (SF-539): > 100 µM (inactive)
GI50 (DMS-273): > 100 µM (inactive)
GI50 (SNB-75): > 100 µM (inactive)
GI50 (SW-620): > 100 µM (inactive)
GI50 (COLO 205): > 100 µM (inactive)
GI50 (NCI-H226): > 100 µM (inactive)
GI50 (EKVX): > 100 µM (inactive)
GI50 (NCI-H460): > 100 µM (inactive)
GI50 (UACC-257): > 100 µM (inactive)
GI50 (HOP-18): > 100 µM (inactive)
GI50 (UACC-62): > 100 µM (inactive)
GI50 (SK-MEL-5): > 100 µM (inactive)
GI50 (SK-OV-3): > 100 µM (inactive)
GI50 (HT-29): > 100 µM (inactive)
GI50 (K562): > 100 µM (inactive)
GI50 (RXF 393): > 100 µM (inactive)
GI50 (UO-31): > 100 µM (inactive)
GI50 (LOX IMVI): > 100 µM (inactive)
GI50 (OVCAR-3): > 100 µM (inactive)
GI50 (KM12): > 100 µM (inactive)
GI50 (M19-MEL): > 100 µM (inactive)
GI50 (M14): > 100 µM (inactive)
GI50 (HOP-62): > 100 µM (inactive)

CC1=C(C(=O)Nc2ccccc2C)C(c2ccccc2O)C(C(=O)Nc2ccccc2C)=C(C)N1
GI50 (KM-20L2): 20.2 µM (inactive)
GI50 (OVCAR-5): 30.8 µM (inactive)
GI50 (DMS-114): 22 µM (inactive)
GI50 (CCRF-CEM): 24.6 µM (inactive)
GI50 (SF-295): 18.6 µM (inactive)
GI50 (786-0): 15.3 µM (inactive)
GI50 (OVCAR-8): 19.8 µM (inactive)
GI50 (MOLT-4): 27.5 µM (inactive)
GI50 (OVCAR-4): 22.2 µM (inactive)
GI50 (SNB-19): 23.4 µM (inactive)
GI50 (DLD-1): 16.8 µM (inactive)
GI50 (IGROV-1): 17.6 µM (inactive)
GI50 (SK-MEL-28): 28 µM (inactive)
GI50 (RPMI-8226): 20.3 µM (inactive)
GI50 (NCI-H23): 34.2 µM (inactive)
GI50 (HL-60): 21 µM (inactive)
GI50 (CAKI-1): 23.4 µM (inactive)
GI50 (HCT-15): 16 µM
GI50 (SNB-78): 29.5 µM (inactive)
GI50 (HOP-92): 51.4 µM (inactive)
GI50 (A498): 21.4 µM (inactive)
GI50 (XF498): 22.3 µM (inactive)
GI50 (A549): 33.7 µM (inactive)
GI50 (SF-268): 33.7 µM (inactive)
GI50 (SK-MEL-2): 17.1 µM (inactive)
GI50 (TK-10): 29.2 µM (inactive)
GI50 (ACHN): 22.3 µM (inactive)
GI50 (LXFL 529): 20.1 µM (inactive)
GI50 (HCT-116): 18.4 µM (inactive)
GI50 (Malme-3M): 26.7 µM (inactive)
GI50 (SN12C): 19.5 µM (inactive)
GI50 (SF-539): 17.3 µM (inactive)
GI50 (DMS-273): 17.7 µM (inactive)
GI50 (SNB-75): 24.5 µM (inactive)
GI50 (SW-620): 33 µM (inactive)
GI50 (NCI-H226): 23.8 µM (inactive)
GI50 (EKVX): 30.8 µM (inactive)
GI50 (NCI-H460): 17.1 µM (inactive)
GI50 (UACC-257): 22 µM (inactive)
GI50 (HOP-18): 17.9 µM (inactive)
GI50 (UACC-62): 15.8 µM (inactive)
GI50 (SK-MEL-5): 20 µM (inactive)
GI50 (HT-29): 25.7 µM (inactive)
GI50 (K562): 25.2 µM (inactive)
GI50 (RXF 393): 25.6 µM (inactive)
GI50 (UO-31): 16.8 µM (inactive)
GI50 (LOX IMVI): 18.6 µM (inactive)
GI50 (SR): 12.3 µM (inactive)
GI50 (OVCAR-3): 17.3 µM (inactive)
GI50 (KM12): 14.7 µM (inactive)
GI50 (M19-MEL): 21 µM (inactive)
GI50 (M14): 18.2 µM (inactive)
GI50 (HOP-62): 21.1 µM (inactive)
GI50 (HCC 2998): 15.9 µM (inactive)
